According to DBAASP:
≈ marks a conversion by molar mass, not a printed value. Where “and” joins values, the source holds several entries; their conditions need not be identical. Equal values may be shown once. Values belong to the compound of their own block, whether it stands above or below them.

What was measured:
Experiment in all cases: ≥ marks a high value that may be exact or a test limit, other limits are often not marked, values filed in µg/mL are converted to µM
[1] = test system: Bacillus subtilis CMCC 63501
[2] = test system: Enterococcus faecalis ATCC 29212
Escherichia coli UB1005 = test system: Escherichia coli UB1005
[3] = test system: Pseudomonas aeruginosa ATCC 27853
[4] = test system: Salmonella enterica subsp. enterica serovar Pullorum C79-13
[5] = test system: Salmonella enterica subsp. enterica serovar Typhimurium C77-31
[6] = test system: Staphylococcus aureus ATCC 29213
[7] = test system: Staphylococcus aureus ATCC 43300
[8] = test system: Staphylococcus epidermidis ATCC 12228
[9] = test system: Acinetobacter baumannii ATCC 19606
Acinetobacter baumannii = test system: Acinetobacter baumannii
[10] = test system: Bacillus subtilis ATCC 6051
[11] = test system: Candida albicans ATCC 90028
[12] = test system: Cryptococcus neoformans ATCC 208821
[13] = test system: Escherichia coli ATCC 25922
[14] = test system: Klebsiella pneumoniae ATCC 13883
[15] = test system: Klebsiella pneumoniae ATCC 700603
[16] = test system: Klebsiella pneumoniae ATCC BAA-2146
Klebsiella pneumoniae = test system: Klebsiella pneumoniae
Pseudomonas aeruginosa = test system: Pseudomonas aeruginosa
[17] = test system: Candida albicans ATCC 10231
Candida krusei CBS 573 = test system: Candida krusei CBS 573
[18] = test system: Candida parapsilosis CBS 604
[19] = test system: Saccharomyces cerevisiae SZMC 0644
Candida albicans CA2761 = test system: Candida albicans CA2761
[20] = test system: Candida albicans CGMCC 2.2086
[21] = test system: Candida krusei CGMCC 2.1857
[22] = test system: Candida tropicalis CGMCC 2.1975
Escherichia coli EC183 = test system: Escherichia coli EC183
[23] = test system: Staphylococcus aureus ATCC 25923
[24] = test system: Bacillus subtilis ATCC 23857
[25] = test system: Cryptococcus neoformans ATCC 28957
Ramulariopsis gossypii = test system: Ramulariopsis gossypii
[26] = test system: Xanthomonas campestris pv. citri

Compound: CC[C@H](C)[C@H](NC(=O)[C@H](CCCN=C(N)N)NC(=O)[C@H](CCCCN)NC(=O)[C@H](Cc1ccccc1)NC(=O)[C@H](CCC(=O)O)NC(=O)[C@H](CCCCN)NC(=O)CN)C(=O)N[C@H](C(=O)N[C@@H](CCCCN)C(=O)N[C@@H](Cc1c[nH]c2ccccc12)C(=O)N1CCC[C@H]1C(=O)N[C@@H](Cc1c[nH]c2ccccc12)C(=O)N[C@@H](Cc1c[nH]c2ccccc12)C(=O)N1CCC[C@H]1C(=O)N[C@@H](Cc1c[nH]c2ccccc12)C(=O)N[C@@H](CCCN=C(N)N)C(=O)N[C@@H](CCCN=C(N)N)C(N)=O)C(C)C [GKEFKRIVKWPWWPWRR]
MIC [1]: 4 µM (≈ 9.42 µg/mL)
MIC [2]: 4 µM (≈ 9.42 µg/mL)
MIC (Escherichia coli UB1005): 2 µM (≈ 4.71 µg/mL)
MIC [3]: 16 µM (≈ 37.7 µg/mL)
MIC [4]: 2 µM (≈ 4.71 µg/mL)
MIC [5]: 4 µM (≈ 9.42 µg/mL)
MIC [6]: 4 µM and 8 µM
MIC [7]: 2 µM (≈ 4.71 µg/mL)
MIC [8]: 8 µM (≈ 18.8 µg/mL)

Compound: CC[C@H](C)[C@@H]1NC(=O)CNC(=O)[C@H](CCCN=C(N)N)NC(=O)[C@H](Cc2ccc(O)cc2)NC(=O)[C@H](CO)NC(=O)[C@H](C(C)C)NC(=O)[C@H](CCCN=C(N)N)NC(=O)[C@H](Cc2ccccc2)NC(=O)[C@@H](NC(=O)[C@H](Cc2c[nH]c3ccccc23)NC(=O)[C@@H](N)CCCCN)CSSC[C@@H](C(=O)N[C@@H](CCCN=C(N)N)C(=O)O)NC(=O)[C@H](CCCN=C(N)N)NC(=O)[C@H](CCCN=C(N)N)NC(=O)[C@H](Cc2ccc(O)cc2)NC(=O)[C@H](C)NC1=O [KWCFRVSYRGIAYRRCR]
MIC [9]: 0.225 µM (≈ 0.5 µg/mL)
MIC (Acinetobacter baumannii): 0.45 µM (≈ 0.999 µg/mL)
MIC [10]: 0.0563 µM (≈ 0.125 µg/mL)
MIC [11]: 0.901 µM (≈ 2 µg/mL)
MIC [12]: 0.225 µM (≈ 0.5 µg/mL)
MIC [13]: 0.45 µM (≈ 0.999 µg/mL)
MIC [14]: 1.8 µM (≈ 4 µg/mL)
MIC [15]: 7.21 µM (≈ 16 µg/mL)
MIC [16]: 3.6 µM (≈ 7.99 µg/mL)
MIC (Klebsiella pneumoniae): 7.21 µM (≈ 16 µg/mL)
MIC [3]: 3.6 µM (≈ 7.99 µg/mL)
MIC (Pseudomonas aeruginosa): 7.21 µM (≈ 16 µg/mL)
MIC [7]: 7.21 µM (≈ 16 µg/mL)

Compound: CC[C@H](C)[C@H](N)C(=O)N[C@@H](C)C(=O)N[C@H](C(=O)N[C@@H](CO)C(=O)N1CCC[C@H]1C(=O)N[C@@H](Cc1ccc(O)cc1)C(=O)N[C@@H](Cc1ccc(O)cc1)C(=O)N[C@@H](C)C(=O)N[C@H]1CSSC[C@@H](C(=O)N2CCC[C@H]2C(=O)O)NC(=O)[C@H](CC(N)=O)NC1=O)[C@@H](C)O [IATSPYYACNCP]
MIC [17]: > 76.8 µM
MIC (Candida krusei CBS 573): ≥ 76.8 µM
MIC [18]: ≥ 76.8 µM
MIC [19]: ≥ 76.8 µM

Compound: CC[C@H](C)[C@H](NC(=O)[C@H](Cc1c[nH]c2ccccc12)NC(=O)[C@H](CCCCN)NC(=O)[C@H](CC(C)C)NC(=O)[C@@H](NC(=O)[C@H](CCCCN)NC(=O)CNC(=O)[C@@H](NC(=O)[C@H](CCCCN)NC(=O)[C@H](CCCCN)NC(=O)[C@H](CC(C)C)NC(=O)[C@H](CCCN=C(N)N)NC(=O)[C@H](CCCCN)NC(=O)[C@H](CCCN=C(N)N)NC(=O)[C@@H](NC(=O)[C@H](CCCCN)NC(=O)[C@H](CCCCN)NC(=O)[C@H](CCCN=C(N)N)NC(=O)[C@H](CC(C)C)NC(=O)[C@H](CCCN=C(N)N)NC(=O)[C@@H](N)CCCN=C(N)N)[C@@H](C)O)[C@@H](C)CC)C(C)C)C(N)=O [RRLRKKTRKRLKKIGKVLKWI]
MIC [1]: 1 µM (≈ 2.7 µg/mL)
MIC (Candida albicans CA2761): 8 µM (≈ 21.6 µg/mL)
MIC [20]: 8 µM (≈ 21.6 µg/mL)
MIC [21]: 2 µM (≈ 5.41 µg/mL)
MIC [22]: 1 µM (≈ 2.7 µg/mL)
MIC [13]: 2 µM (≈ 5.41 µg/mL)
MIC (Escherichia coli EC183): 1 µM (≈ 2.7 µg/mL)
MIC (Escherichia coli UB1005): 2 µM (≈ 5.41 µg/mL)
MIC [5]: 1 µM (≈ 2.7 µg/mL)
MIC [23]: 4 µM (≈ 10.8 µg/mL)
MIC [6]: 4 µM (≈ 10.8 µg/mL)
MIC [8]: 4 µM (≈ 10.8 µg/mL)

Compound: CC[C@H](C)[C@@H]1NC(=O)CNC(=O)[C@H](CCCN=C(N)N)NC(=O)[C@H](Cc2ccc(O)cc2)NC(=O)[C@@H]2CSSC[C@H](NC1=O)C(=O)N[C@@H](Cc1ccc(O)cc1)C(=O)N[C@@H](CCCN=C(N)N)C(=O)N[C@@H](CCCN=C(N)N)C(=O)N[C@H](C(=O)N[C@@H](C)C(=O)O)CSSC[C@H](NC(=O)[C@H](Cc1c[nH]c3ccccc13)NC(=O)[C@@H](N)CCCCN)C(=O)N[C@@H](Cc1ccccc1)C(=O)N[C@@H](CCCN=C(N)N)C(=O)N[C@@H](C(C)C)C(=O)N2 [KWCFRVCYRGICYRRCA]
MIC [9]: 0.0572 µM (≈ 0.125 µg/mL)
MIC (Acinetobacter baumannii): 0.0572 µM (≈ 0.125 µg/mL)
MIC [10]: 0.0069 µM (≈ 0.015 µg/mL)
MIC [11]: 1.83 µM (≈ 3.99 µg/mL)
MIC [12]: 0.115 µM (≈ 0.25 µg/mL)
MIC [13]: 0.0069 µM (≈ 0.015 µg/mL)
MIC [14]: 0.0572 µM (≈ 0.125 µg/mL)
MIC [15]: 0.115 µM (≈ 0.25 µg/mL)
MIC [16]: 0.115 µM (≈ 0.25 µg/mL)
MIC (Klebsiella pneumoniae): 1.83 µM (≈ 3.99 µg/mL)
MIC [3]: 0.115 µM (≈ 0.25 µg/mL)
MIC (Pseudomonas aeruginosa): 0.229 µM (≈ 0.499 µg/mL)
MIC [7]: 0.229 µM (≈ 0.499 µg/mL)

Next, values leading:

MIC [17]: > 32 µM
MIC (Candida krusei CBS 573): ≥ 32 µM
MIC [18]: ≥ 32 µM
MIC [19]: ≥ 32 µM
Compound: CC[C@H](C)[C@H](NC(=O)[C@@H]1CSSC[C@H](NC(=O)[C@H](CCCCN)NC(=O)CNC(=O)[C@H](CO)NC(=O)[C@@H](NC(=O)[C@@H](NC(=O)[C@H](CCCCN)NC(=O)[C@H](CO)NC(=O)[C@H](CCCCN)NC(=O)[C@H](CC(=O)O)NC(=O)[C@H](CO)NC(=O)[C@@H]2CCCN2C(=O)CNC(=O)[C@H](CO)NC(=O)[C@H](Cc2cnc[nH]2)NC(=O)[C@H](Cc2ccc(O)cc2)NC(=O)[C@@H](N)CCCCN)C(C)C)[C@@H](C)CC)C(=O)N[C@@H](CCC(=O)O)C(=O)N[C@@H](Cc2c[nH]c3ccccc23)C(=O)N[C@@H](CCC(N)=O)C(=O)NCC(=O)NCC(=O)N[C@@H](CCC(N)=O)C(=O)N[C@@H](CC(C)C)C(=O)N[C@@H](CC(N)=O)C(=O)N1)C(=O)N[C@@H](C)C(=O)N[C@H](C(=O)O)[C@@H](C)O [KYHSGPSDKSKVISGKCEWQGGQLNCIAT]

MIC [24]: 16 µM (≈ 36.9 µg/mL)
MIC [11]: ≥ 64 µM
MIC [25]: ≥ 64 µM
MIC [13]: 26.7 µM (≈ 61.5 µg/mL)
MIC [3]: 128 µM (≈ 295 µg/mL)
MIC (Ramulariopsis gossypii): ≥ 64 µM
MIC [26]: ≥ 128 µM
Compound: CC[C@H](C)[C@H](NC(=O)[C@H](Cc1ccccc1)NC(=O)[C@@H](NC(=O)[C@H](CCC(N)=O)NC(=O)[C@H](Cc1ccc(O)cc1)NC(=O)[C@H](CCCN=C(N)N)NC(=O)[C@@H](NC(=O)[C@H](CC(C)C)NC(=O)[C@H](CCCCN)NC(=O)[C@H](CCC(N)=O)NC(=O)[C@H](CC(C)C)NC(=O)[C@H](CCC(=O)O)NC(=O)[C@H](CCCCN)NC(=O)[C@H](Cc1ccccc1)NC(=O)[C@H](CC(C)C)NC(=O)[C@H](CC(C)C)NC(=O)CN)[C@@H](C)CC)[C@@H](C)CC)C(=O)NCC(=O)N[C@@H](CCCCN)C(N)=O [GLLFKELQKLIRYQIFIGK]

MIC [1]: 1 µM (≈ 2.28 µg/mL)
MIC (Candida albicans CA2761): 8 µM (≈ 18.2 µg/mL)
MIC [20]: 16 µM (≈ 36.5 µg/mL)
MIC [21]: 4 µM (≈ 9.12 µg/mL)
MIC [22]: 2 µM (≈ 4.56 µg/mL)
MIC [13]: 2 µM (≈ 4.56 µg/mL)
MIC (Escherichia coli EC183): 1 µM (≈ 2.28 µg/mL)
MIC (Escherichia coli UB1005): 2 µM (≈ 4.56 µg/mL)
MIC [5]: 2 µM (≈ 4.56 µg/mL)
MIC [23]: 8 µM (≈ 18.2 µg/mL)
MIC [6]: 4 µM (≈ 9.12 µg/mL)
MIC [8]: 4 µM (≈ 9.12 µg/mL)
Compound: CC[C@H](C)[C@H](NC(=O)[C@H](Cc1c[nH]c2ccccc12)NC(=O)[C@H](CCCCN)NC(=O)[C@H](CC(C)C)NC(=O)[C@@H](NC(=O)[C@H](CCCCN)NC(=O)CNC(=O)[C@@H](NC(=O)[C@H](CCCCN)NC(=O)[C@H](CCCCN)NC(=O)[C@H](CC(C)C)NC(=O)[C@H](CCCN=C(N)N)NC(=O)[C@H](CCCCN)NC(=O)[C@H](CCCN=C(N)N)NC(=O)[C@@H](NC(=O)[C@H](CCCCN)NC(=O)[C@H](CCCCN)NC(=O)[C@@H](N)CCCN=C(N)N)[C@@H](C)O)[C@@H](C)CC)C(C)C)C(N)=O [RKKTRKRLKKIGKVLKWI]
